Measured values as given in patent publication US12606541B2, “PPARg modulators and methods of use” (Eisai R&D Management Co., Ltd., priority 2020, dated 2026).

Key:
[1] = biological target: T1, His6-TEV-PPARγ-(234-505) (Homo sapiens, UniProt P37231); assay: TR-FRET Assay to Measure Co-R Peptide Recruitment to PPARγ; assay type: biochemical; details: Co-R peptide (SMRT-ID2) recruitment; top final concentration 20 μM; read-out: TR-FRET i-Ag; AC50
T1 construct: The His6-TEV-PPARγ-(234-505) protein for assay was expressed and purified; TEV cleavage site (N); made in house
T1 sequence (P37231 234-505): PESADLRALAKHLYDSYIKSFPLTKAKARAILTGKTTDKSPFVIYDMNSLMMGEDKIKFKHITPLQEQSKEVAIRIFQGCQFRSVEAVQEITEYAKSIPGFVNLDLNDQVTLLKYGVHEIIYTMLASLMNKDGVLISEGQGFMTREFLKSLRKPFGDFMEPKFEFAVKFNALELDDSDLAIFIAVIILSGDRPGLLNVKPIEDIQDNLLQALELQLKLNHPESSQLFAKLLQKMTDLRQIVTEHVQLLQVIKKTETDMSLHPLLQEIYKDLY
Procedure, shortened: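 His-tagged PPARγ (or controls) was preincubated with compound for 20 minutes at room temperature, then 5 nM anti-His terbium antibody and 200 nM FITC-labeled SMRT-ID2 corepressor peptide (final) were added for a further hour. TR-FRET signal was normalized to percent response using 500 nM T0070907 and DMSO controls.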

[2] = tested on: UM-UC-9 engineered cells; assay: Cell proliferation / short-term viability assay, CellTiter-Glo 144 h; assay type: cell-based, human; details: read-out: CTGlo 144 h UMUC9.5, G150
Procedure, shortened: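 UM-UC-9 engineered assay-ready cells seeded at 500 cells/well in high-glucose DMEM/10% FBS, treated from dose-response plates, grown at 37° C, 5% CO2. CellTiter-Glo 2.0 luminescence read on day 7, with a day-0 pretreatment plate as T0 reference and DMSO wells as negative control.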

## (S)-4-(5-(5-fluoro-2-methoxypyridin-4-yl)-1H-pyrazole-3-carbonyl)-N-((1r,4S)-4-hydroxy-4-(perfluoroethyl)cyclohexyl)-4-azaspiro[2.5]octane-7-carboxamide and (S)-4-(5-(5-fluoro-2-methoxypyridin-4-yl)-1H-pyrazole-3-carbonyl)-N-((1s,4R)-4-hydroxy-4-(perfluoroethyl)cyclohexyl)-4-azaspiro[2.5]octane-7-carboxamide [Example 373]
[1]
  AC50: 11.7 nM
[2]
  IC50: 3 nM

## (S)-4-(5-(5-fluoro-2-methoxypyridin-4-yl)-1H-pyrazole-3-carbonyl)-N-((1s,4R)-4-(hydroxymethyl)-4-(trifluoromethyl)cyclohexyl)-4-azaspiro[2.5]octane-7-carboxamide and (S)-4-(5-(5-fluoro-2-methoxypyridin-4-yl)-1H-pyrazole-3-carbonyl)-N-((1r,4S)-4-(hydroxymethyl)-4-(trifluoromethyl)cyclohexyl)-4-azaspiro[2.5]octane-7-carboxamide [Example 408]
[1]
  AC50: 6.3 nM
[2]
  IC50: 7.2 nM

## (S)-4-(5-(5-fluoro-2-methoxypyridin-4-yl)-1H-pyrazole-3-carbonyl)-N—(((S)-3-(trifluoromethyl)-5,6-dihydro-8H-[1,2,4]triazolo[3,4-c][1,4]oxazin-6-yl)methyl)-4-azaspiro[2.5]octane-7-carboxamide and (S)-4-(5-(5-fluoro-2-methoxypyridin-4-yl)-1H-pyrazole-3-carbonyl)-N—(((R)-3-(trifluoromethyl)-5,6-dihydro-8H-[1,2,4]triazolo[3,4-c][1,4]oxazin-6-yl)methyl)-4-azaspiro[2.5]octane-7-carboxamide [Example 357]
[1]
  AC50: 45.1 nM
[2]
  IC50: 2190 nM

## (S)-4-(5-(5-fluoro-2-methoxypyridin-4-yl)-1H-pyrazole-3-carbonyl)-N—((S)-1-(oxetan-3-yl)piperidin-3-yl)-4-azaspiro[2.5]octane-7-carboxamide and (S)-4-(5-(5-fluoro-2-methoxypyridin-4-yl)-1H-pyrazole-3-carbonyl)-N—((R)-1-(oxetan-3-yl)piperidin-3-yl)-4-azaspiro[2.5]octane-7-carboxamide [Example 421]
[1]
  AC50: 182 nM
[2]
  IC50: 365 nM

## (S)—N-((1s,4R)-4-(1,1-difluoroethyl)-4-hydroxycyclohexyl)-4-(5-(5-fluoro-2-methoxypyridin-4-yl)-1H-pyrazole-3-carbonyl)-4-azaspiro[2.5]octane-7-carboxamide and (S)—N-((1r,4S)-4-(1,1-difluoroethyl)-4-hydroxycyclohexyl)-4-(5-(5-fluoro-2-methoxypyridin-4-yl)-1H-pyrazole-3-carbonyl)-4-azaspiro[2.5]octane-7-carboxamide [Example 375]
[1]
  AC50: 6.4 nM
[2]
  IC50: 1.6 nM

## (S)—N-((4S,7r)-3,3-difluoro-1-oxaspiro[3.5]nonan-7-yl)-4-(5-(5-fluoro-2-methoxypyridin-4-yl)-1H-pyrazole-3-carbonyl)-4-azaspiro[2.5]octane-7-carboxamide and (S)—N-((4R,7s)-3,3-difluoro-1-oxaspiro[3.5]nonan-7-yl)-4-(5-(5-fluoro-2-methoxypyridin-4-yl)-1H-pyrazole-3-carbonyl)-4-azaspiro[2.5]octane-7-carboxamide [Example 374]
[1]
  AC50: 13.1 nM
[2]
  IC50: 15.8 nM

## (S)—N—((R)-1-(3-chloropyridin-2-yl)ethyl)-4-(5-(5-fluoro-2-methoxypyridin-4-yl)-1H-pyrazole-3-carbonyl)-4-azaspiro[2.5]octane-7-carboxamide and (S)—N—((S)-1-(3-chloropyridin-2-yl)ethyl)-4-(5-(5-fluoro-2-methoxypyridin-4-yl)-1H-pyrazole-3-carbonyl)-4-azaspiro[2.5]octane-7-carboxamide [Example 360]
[1]
  AC50: 21.8 nM
[2]
  IC50: 8.7 nM

## (S)—N—((S)-1-(5-cyclopropyl-1,3,4-oxadiazol-2-yl)ethyl)-4-(5-(5-fluoro-2-methoxypyridin-4-yl)-1H-pyrazole-3-carbonyl)-4-azaspiro[2.5]octane-7-carboxamide and (S)—N—((R)-1-(5-cyclopropyl-1,3,4-oxadiazol-2-yl)ethyl)-4-(5-(5-fluoro-2-methoxypyridin-4-yl)-1H-pyrazole-3-carbonyl)-4-azaspiro[2.5]octane-7-carboxamide [Example 395]
[1]
  AC50: 274 nM
[2]
  IC50: 761 nM

## (S)—N—((S)-3,4-dihydro-2H-pyrano[3,2-b]pyridin-4-yl)-4-(5-(5-fluoro-2-methoxypyridin-4-yl)-1H-pyrazole-3-carbonyl)-4-azaspiro[2.5]octane-7-carboxamide and (S)—N—((R)-3,4-dihydro-2H-pyrano[3,2-b]pyridin-4-yl)-4-(5-(5-fluoro-2-methoxypyridin-4-yl)-1H-pyrazole-3-carbonyl)-4-azaspiro[2.5]octane-7-carboxamide [Example 366]
[1]
  AC50: 28.8 nM
[2]
  IC50: 41.4 nM
